Data published in patent US9057727B2, “Screening methods using G-protein coupled receptors and related compositions” (The General Hospital Corporation, priority 2007, dated 2015).
Ends that are not written are not given here. Peptide text beside a SMILES is read from it.

Columns and labels:
[1] = target: T1, human PTHR, G protein-coupled conformation (RG) (Homo sapiens, UniProt Q03431); test: Competition binding to RG conformation of hPTHR (COS-7 membranes, GαsND, 125I-[Aib1,3,M]PTH(1-15) tracer)
T1 construct: expressed in transfected cells; host or cells: COS-7, transient (Fugene-6); membranes
T1 sequence (Q03431 27-593): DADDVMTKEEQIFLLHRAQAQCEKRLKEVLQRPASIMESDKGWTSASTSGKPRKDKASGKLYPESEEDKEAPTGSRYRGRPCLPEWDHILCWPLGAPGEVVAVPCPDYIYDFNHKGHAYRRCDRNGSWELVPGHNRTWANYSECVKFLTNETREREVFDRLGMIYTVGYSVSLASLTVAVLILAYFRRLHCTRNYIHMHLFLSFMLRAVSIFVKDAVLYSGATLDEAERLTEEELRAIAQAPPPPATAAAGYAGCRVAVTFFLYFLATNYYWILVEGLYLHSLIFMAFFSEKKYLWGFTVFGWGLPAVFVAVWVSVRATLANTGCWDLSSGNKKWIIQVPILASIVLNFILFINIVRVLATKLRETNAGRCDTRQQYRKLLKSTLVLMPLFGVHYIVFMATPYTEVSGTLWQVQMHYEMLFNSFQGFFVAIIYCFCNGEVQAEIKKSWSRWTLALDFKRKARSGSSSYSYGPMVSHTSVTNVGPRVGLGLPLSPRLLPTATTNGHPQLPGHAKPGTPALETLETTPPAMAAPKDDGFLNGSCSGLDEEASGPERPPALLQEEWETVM

[2] = test system: SaOS cells; test: cAMP production in SaOS cells, dose-response; type: cell-based; conditions: Table 3; read-out: dose-response cAMP in SaOS (EC50)
[3] = test system: LLCPK1-B64 cells or SaOS-2 cells; test: cAMP screen of substituted PTHrP(1-28) analogs (% parent); type: cell-based; conditions: parent PTHrP(1-28)NH
Method in brief: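 LLCPK1-B64 or SaOS-2 cells exposed to peptide analogs at 3×10^−9M with IBMX for 30 minutes at room temperature, then cAMP measured. Each analog's response expressed as percentage of that for parent PTHrP(1-28).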

[4] = target: T2, human PTHR, G protein-uncoupled conformation (R^0) (Homo sapiens, UniProt Q03431); test: Competition binding to R0 conformation of hPTHR (COS-7 membranes, GTPγS, 125I-PTH(1-34) tracer); conditions: parent PTHrP(1-28)NH
T2 construct: expressed in transfected cells; host or cells: COS-7, transient (Fugene-6)
T2 sequence (Q03431 27-593): T1 sequence (Q03431 27-593)
Method in brief: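 Bound versus free radioligand was separated by vacuum filtration after 90 min incubation of COS-7 hPTHR membranes (20-100 μg/mL) with tracer and competing peptides. Non-specific binding came from a saturating unlabeled analog.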

[5] = test system: MC3T3-E1 cells; test: cAMP in MC3T3-E1 cells, dose-response; type: cell-based; conditions: Table 3; read-out: dose-response cAMP in MC3T3-E1 (EC50)
Protocol: In the 1-30 scaffold, Gly, Ser, Leu, Asn, Gln, Trp, Glu, and Lys were substituted at position 29; Gly, Ser, Leu, Asn, Asp, Trp, and Lys were substituted at position 30; and Ser, Leu, Asn, Val, Trp, Glu, and Lys were substituted at position 31. […] These peptides were tested for cAMP activity in MC3T3-E1 cells.

[6] = test system: MC3T3-E1 cells; test: cAMP screen of EALK-PTHrP(1-31)/(1-34) variants (% parent); type: cell-based
Description: FIGS. 32A and 32B are graphs showing the effects of amino acid substitutions in the 29-31 region of EALK-PTHrP(1-31) (SEQ ID NO:94) (FIG. 32A) and the 29-33 region of EALK-PTHrP(1-34) (SEQ ID NO:112) (FIG. 32B) on induction of cAMP activity in MC3T3-E1 cells. Substitutions at position 29 for EALK-PTHrP(1-31) were G^29 to S^29 (SEQ ID NO:95-96), L^29 (SEQ ID NO:176), and N^29 to K^29 (SEQ ID NO:97-101). Substitutions at position 30 for EALK-PTHrP(1-31) were G^30 to D^30 (SEQ ID NO:102-106), W^30 (SEQ ID NO:177), and K^30 (SEQ ID NO:107). […] Substitutions for EALK-PTHrP(1-34) A^30 to A^33 (SEQ ID NO:113-116) and EALK-PTHrP(1-28)/PTH(29-34) (SEQ ID NO:117).
To optimize the activity of the EALK-PTHrP peptides, we generated EALK-PTHrP([…]) and PTHrP(1-34) variants with substitutions in the 29-33 region. In the 1-30 scaffold, Gly, Ser, Leu, Asn, Gln, Trp, Glu, and Lys were substituted at position 29; Gly, Ser, Leu, Asn, Asp, Trp, and Lys were substituted at position 30; and Ser, Leu, Asn, Val, Trp, Glu, and Lys were substituted at position 31. […] A predicted advantage of these longer-length peptides, relative to the PTHrP(1-30) scaffold, is that they will have longer a longer half-life in circulation due to slower clearance. The C-terminal substitutions were thus designed to provide the added chain length, but to avoid increasing R^0 binding affinity, which occurs when the native PTHrP(29-34) region (SEQ ID NO:186) is installed. These peptides were tested for cAMP activity in MC3T3-E1 cells.

[7] = parent E18,A22,L25,K26-PTHrP(1-34)OH
[8] = parent E18,A22,L25,K26-PTHrP(1-31)OH

Compound | EC50 [2] | screen cAMP (% parent) [3] | EC50 [5] | screen cAMP (% parent) [6, 8] | further results
CC[C@H](C)[C@H](NC(=O)[C@H](CC(C)C)NC(=O)[C@H](CCCCN)NC(=O)[C@H](CC(C)C)NC(=O)[C@H](CC(C)C)NC(=O)[C@H](Cc1ccccc1)NC(=O)[C@H](CO)NC(=O)[C@H](CCCNC(=N)N)NC(=O)[C@H](CCCNC(=N)N)NC(=O)[C@H](CCCNC(=N)N)NC(=O)[C@H](C)NC(=O)[C@H](CC(=O)O)NC(=O)[C@H](CCC(N)=O)NC(=O)[C@@H](NC(=O)[C@H](CO)NC(=O)[C@H](CCCCN)NC(=O)CNC(=O)[C@H](CCCCN)NC(=O)[C@H](CC(=O)O)NC(=O)[C@H](Cc1c[nH]cn1)NC(=O)[C@H](CC(C)C)NC(=O)[C@H](CC(C)C)NC(=O)[C@H](CCC(N)=O)NC(=O)[C@H](Cc1c[nH]cn1)NC(=O)[C@H](CCC(=O)O)NC(=O)[C@H](CO)NC(=O)[C@@H](NC(=O)[C@H](C)N)C(C)C)[C@@H](C)CC)C(N)=O [A18, S22, L25, K26-PTHrP(1-28)NH, A18,S22,L25,K26-PTHrP(1-28)] (H-AVSEHQLLHDKGKSIQDARRRSFLLKLI-NH2; N-terminus assumed) | 0.009 nM | 367 % parent |  |  | IC50 ([1]; Table 3, read-out: dose-response human PIR RG (IC50 nM)): 0.1 nM
CC[C@H](C)[C@H](NC(=O)[C@H](CC(C)C)NC(=O)[C@H](CCCCN)NC(=O)[C@H](CC(C)C)NC(=O)[C@H](CC(C)C)NC(=O)[C@H](Cc1ccccc1)NC(=O)[C@H](CO)NC(=O)[C@H](CCCNC(=N)N)NC(=O)[C@H](CCCNC(=N)N)NC(=O)[C@H](CCCNC(=N)N)NC(=O)[C@H](CCC(=O)O)NC(=O)[C@H](CC(=O)O)NC(=O)[C@H](CCC(N)=O)NC(=O)[C@@H](NC(=O)[C@H](CO)NC(=O)[C@H](CCCCN)NC(=O)CNC(=O)[C@H](CCCCN)NC(=O)[C@H](CC(=O)O)NC(=O)[C@H](Cc1c[nH]cn1)NC(=O)[C@H](CC(C)C)NC(=O)[C@H](CC(C)C)NC(=O)[C@H](CCC(N)=O)NC(=O)[C@H](Cc1c[nH]cn1)NC(=O)[C@H](CCC(=O)O)NC(=O)[C@H](CO)NC(=O)[C@@H](NC(=O)[C@H](C)N)C(C)C)[C@@H](C)CC)C(N)=O [E18, S22, L25, K26-PTHrP(1-28)NH, E18,S22,L25,K26-PTHrP(1-28)] (H-AVSEHQLLHDKGKSIQDERRRSFLLKLI-NH2; N-terminus assumed) | 0.055 nM | 337 % parent |  |  | 
AVSEHQLLHDKGKSIQDARRRAFLKKLI [A18, 22, K25, 26-PTHrP(1-28)NH, A18,22,K25,26-PTHrP(1-28)] | 0.012 nM | 349 % parent |  |  | 
AVSEHQLLHDKGKSIQDARRRSFLHKLI [A18, S22, K26-PTHrP(1-28)NH, A18,S22,K26-PTHrP(1-28)] | 0.038 nM | 372 % parent |  |  | screen human PIR R0 (% parent) [4]: 155 % parent; screen human PIR RG (% parent) ([1]; parent PTHrP(1-28)NH): 175 % parent
AVSEHQLLHDKGKSIQDARRRSFLKKLI [A18, S22, K25, 26-PTHrP(1-28)NH, A18,S22,K25,26-PTHrP(1-28)] | 0.015 nM | 316 % parent |  |  | 
AVSEHQLLHDKGKSIQDERRRAFLKKLI [E18, A22, K25, 26-PTHrP(1-28)NH, E18,A22,K25,26-PTHrP(1-28)] | 0.054 nM | 323 % parent |  |  | 
AVSEHQLLHDKGKSIQDERRRAFLLKLIAAIHTA [E18, A22, L25, K26, A30-PTHrP(1-34)OH, E18,A22,L25,K26,A30-PTHrP(1-34)] |  |  | 0.14 nM |  | screen cAMP (% parent) [6, 7]: 237 % parent
AVSEHQLLHDKGKSIQDERRRAFLLKLIADI [E18, A22, L25, K26, D30-PTHrP(1-31)OH, E18,A22,L25,K26,D30-PTHrP(1-31)] |  |  | 0.32 nM | 251 % parent | 
AVSEHQLLHDKGKSIQDERRRAFLLKLIAEAHTA [E18, A22, L25, K26, A31-PTHrP(1-34)OH, E18,A22,L25,K26,A31-PTHrP(1-34)] |  |  | 0.15 nM |  | screen cAMP (% parent) [6, 7]: 249 % parent
AVSEHQLLHDKGKSIQDERRRAFLLKLIAEI [E18, A22, L25, K26-PTHrP(1-31)OH, E18,A22,L25,K26-PTHrP(1-31)] |  |  | 0.78 nM | 100 % parent | 
AVSEHQLLHDKGKSIQDERRRAFLLKLIAEIHTA [E18, A22, L25, K26-PTHrP(1-34)OH, E18,A22,L25,K26-PTHrP(1-34)] |  |  | 0.45 nM |  | screen cAMP (% parent) [6, 7]: 100 % parent
AVSEHQLLHDKGKSIQDERRRAFLLKLIAEL [E18, A22, L25, K26, L31-PTHrP(1-31)OH, E18,A22,L25,K26,L31-PTHrP(1-31)] |  |  | 0.25 nM | 198 % parent | 
AVSEHQLLHDKGKSIQDERRRAFLLKLIAKI [E18, A22, L25, K26, K30-PTHrP(1-31)OH, E18,A22,L25,K26,K30-PTHrP(1-31)] |  |  | 0.2 nM | 245 % parent | 
AVSEHQLLHDKGKSIQDERRRAFLLKLIASI [E18, A22, L25, K26, S30-PTHrP(1-31)OH, E18,A22,L25,K26,S30-PTHrP(1-31)] |  |  | 0.12 nM | 331 % parent | 
AVSEHQLLHDKGKSIQDERRRAFLLKLIKEI [E18, A22, L25, K26, K29-PTHrP(1-31)OH, E18,A22,L25,K26,K29-PTHrP(1-31)] |  |  | 0.28 nM | 227 % parent | 
AVSEHQLLHDKGKSIQDERRRAFLLKLIQDVHNF [E18,A22,L25,K26,Q29,D30,V31,N33,F34-PTHrP(1-34)] |  |  | 0.56 nM |  | screen cAMP (% parent) [6, 7]: 204 % parent
AVSEHQLLHDKGKSIQDERRRAFLLKLIQEI [E18, A22, L25, K26, Q29-PTHrP(1-31)OH, E18,A22,L25,K26,Q29-PTHrP(1-31)] |  |  | 0.59 nM | 226 % parent | 
AVSEHQLLHDKGKSIQDERRRAFLLKLISEI [E18, A22, L25, K26, S29-PTHrP(1-31)OH, E18,A22,L25,K26,S29-PTHrP(1-31)] |  |  | 0.41 nM | 209 % parent | 
E18,A22,L25,K26,W29-PTHrP(1-31) (AVSEHQLLHDKGKSIQDERRRAFLLKLIWEI-OH) [E18, A22, L25, K26, W29-PTHrP(1-31)OH] |  |  |  | 142 % parent | 
